Experimental findings from US5200409A, “Composition and use of substituted 1,3-dithiolo-and 1,4-dithiinoquinoxalines as an antimicrobial” (The Dow Chemical Company, priority 1992, dated 1993) are described below.

≈ marks a conversion by molar mass, not a printed value. Like-named read-outs stand apart in the source and are kept apart here.

The subject of experiment [1] is Penicillium chrysogenum (Pc). Description: Minimum inhibitory concentration (MIC) in malt yeast agar. In kind it is cell-based, Penicillium chrysogenum ATCC 9480. To be noted: malt yeast agar; 30° C.; 72 hours for fungi; read-out: Minimum Inhibitory Concentration, Pc. The protocol:
(§1) The minimum inhibitory concentration (MIC) for the compounds listed in Table I is determined for 9 bacteria, using nutrient agar: and 7 yeast and fungi, using malt yeast agar. A one percent solution of the test compound is prepared in a mixture of acetone and water. Nutrient agar is prepared at pH 6.8, representing a neutral medium, and at pH 8.2, representing an alkaline medium. The nutrient agars are prepared by adding 23 g of nutrient agar to one-liter of deionized water. In addition, the alkaline medium is prepared by adjusting a 0.04M solution of N-[tris-(hydroxymethyl)methyl]-glycine buffered deionized water with concentrated sodium hydroxide to a pH of […]. Malt yeast agar is prepared by adding 3 g yeast extract and 45 g malt agar per liter of deionized water. The specific agar is dispensed in 30 ml aliquots into 25×200 mm test tubes, capped and autoclaved for 15 minutes at 115° C. The test tubes containing the agar are cooled in a water bath until the temperature of the agar is 48° C. Then, an appropriate amount of the one percent solution of the test compound is added (except in the controls where no compound is added) to the respective test tubes so that the final concentrations are 500, 250, 100, 50, 25, 10, 5, 2.5, 1.0 and zero parts per million of the test compound in the agar, thus having a known concentration of test compound dispersed therein. The contents of the test tubes are then transferred to respective petri plates. After drying for 24 hours, the petri plates containing nutrient agar are inoculated with bacteria and those containing malt yeast agar are inoculated with yeast and fungi.
(§2) The inoculation with the yeast and fungi is accomplished as follows. Cultures of yeast and fungi are incubated for seven days on malt yeast agar at 30° C. These cultures are used to prepare suspensions by the following procedure. A suspension of each organism is prepared by adding 10 ml of sterile saline and 10 microliters of octylphenoxy polyethoxy ethanol to the agar slant of yeast or fungi. The sterile saline/octylphenoxy polyethoxy ethanol solution is then agitated with a sterile swab to suspend the microorganism grown on the slant. Each resulting suspension is diluted into sterile saline (1 part suspension: 9 parts sterile saline). Aliquots of these dilutions are placed in individual wells of Steer's Replicator and petri plates inoculated as previously described. The petri plates are incubated at 30° C. and read after 48 hours for yeast and 72 hours for fungi.
(§3) Table II lists the bacteria, yeast and fungi used in the MIC test described above along with their respective American Type Culture Collection (ATCC) identification numbers.

The test system of experiment [2] is Pseudomonas aeruginosa (Pa). In words: Minimum inhibitory concentration (MIC) in nutrient agar. The settings on record: 48 hours. In kind it is cell-based, Pseudomonas aeruginosa ATCC 10145. The protocol: as §1
(§4) The inoculation with bacteria is accomplished by using the following procedure. Twenty-four hour-cultures of each of the bacteria are prepared by incubating the respective bacteria in tubes containing nutrient broth for 24 hours at 30° C. in a shaker. Dilutions of each of the 24 hour-cultures are made so that nine separate suspensions (one for each of the nine test bacteria) are made, each containing 10^8 colony forming units (CFU) per ml of suspension of a particular bacteria. Aliquots of 0.3 ml of each of the bacterial suspensions are used to fill the individual wells of Steer's Replicator. For each microbial suspension, 0.3 ml was used to fill three wells (i.e., three wells of 0.3 ml each) so that for the nine different bacteria, 27 wells are filled. The Steer's Replicator is then used to inoculate both the neutral and alkaline pH nutrient agar petri plates.
(§5) The inoculated petri plates are incubated at 30° C. for 48 hours and then read to determine if the test compound which is incorporated into the agar prevented growth of the respective bacteria.
as §3

Experiment [3] concerns Proteus vulgaris (Pv). The experiment is described as above. The settings on record: 48 h. In kind it is cell-based, Proteus vulgaris ATCC 881. The protocol: as §1, §4, §5, §3
Experiment [4] concerns Escherichia coli (Ec). The description is as above. The settings on record: 48 h. In kind it is cell-based, Escherichia coli ATCC 11229. The protocol: as §1, §4, §5, §3
For experiment [5], the system named is Candida albicans (Ca). In words: Minimum inhibitory concentration (MIC) in malt yeast agar. In kind it is cell-based, Candida albicans ATCC 10231. The settings on record: malt yeast agar; 30° C.; 48 hours for yeast; read-out: Minimum Inhibitory Concentration, Ca. The protocol:
as §1, §2, §3

Experiment [6] relates to Pseudomonas aeruginosa (PRD-10). In words: Minimum inhibitory concentration (MIC) in nutrient agar. The class given is cell-based, Pseudomonas aeruginosa ATCC 15442. The settings on record: 48 h. The protocol: as §1, §4, §5, §3
Experiment [7] relates to Staphylococcus aureus (Sa). The experiment is described as above. The class given is cell-based, Staphylococcus aureus ATCC 6538. The protocol: as §1, §4, §5, §3
Experiment [8] relates to Trichoderma viride (Tv). In words: Minimum inhibitory concentration (MIC) in malt yeast agar. In kind it is cell-based, Trichoderma viride ATCC 8678. To be noted: malt yeast agar; 30° C.; 72 hours for fungi; read-out: Minimum Inhibitory Concentration, Tv. The protocol: as §1, §2, §3
Experiment [9] concerns Saccharomyces cerevisiae (Sc). The description is as above. The class given is cell-based, Saccharomyces cerevisiae ATCC 4105. To be noted: malt yeast agar, 30° C., 48 hours for yeast, read-out: Minimum Inhibitory Concentration, Sc. The protocol: as §1, §2, §3
The test system of experiment [10] is Klebsiella pneumoniae (Kp). Description: Minimum inhibitory concentration (MIC) in nutrient agar. In kind it is cell-based, Klebsiella pneumoniae ATCC 8308. The protocol: as §1, §4, §5, §3
Experiment [11] relates to Salmonella choleraesuis (Sc). Described as above. The class given is cell-based, Salmonella choleraesuis ATCC 10708. The settings on record: Salmonella enterica, 48 h. The protocol: as §1, §4, §5, §3
For experiment [12], the system named is Enterobacter aerogenes (Ea). Described as above. To be noted: Klebsiella aerogenes, 48 h. The class given is cell-based, Enterobacter aerogenes ATCC 13048. The protocol:
as §1, §4, §5, §3

For experiment [13], the system named is Fusarium oxysporum (Fo). In words: Minimum inhibitory concentration (MIC) in malt yeast agar. In kind it is cell-based, Fusarium oxysporum ATCC 48112. To be noted: malt yeast agar; 30° C.; 72 hours for fungi; read-out: Minimum Inhibitory Concentration, Fo. The protocol: as §1, §2, §3
Experiment [14] relates to Aspergillus niger (An). The experiment is described as above. In kind it is cell-based, Aspergillus niger ATCC 16404. To be noted: malt yeast agar; 30° C.; 72 hours for fungi; read-out: Minimum Inhibitory Concentration, An. The protocol:
as §1, §2, §3

In experiment [15] the test system is Bacillus subtilis (Bs). Description: Minimum inhibitory concentration (MIC) in nutrient agar. The class given is cell-based, Bacillus subtilis ATCC 8473. To be noted: 48 h. The protocol:
as §1, §4, §5, §3

Experiment [16] deals with Aureobasidium pullulan (Ap). Description: Minimum inhibitory concentration (MIC) in malt yeast agar. In kind it is cell-based, Aureobasidium pullulan ATCC 16622. To be noted: malt yeast agar; 30° C.; 48 hours for yeast and 72 hours for fungi; read-out: Minimum Inhibitory Concentration, Ap. The protocol:
as §1, §2, §3

Setting [17] is: pH 6.8, read-out: Minimum Inhibitory Concentration, Pv.
Where [18] appears, read: pH 8.2, read-out: Minimum Inhibitory Concentration, Pv.
Where [19] appears, read: pH 6.8, read-out: Minimum Inhibitory Concentration, Ec.
Setting [20] is: pH 8.2, read-out: Minimum Inhibitory Concentration, Ec.
[21] abbreviates: pH 6.8, read-out: Minimum Inhibitory Concentration, PRD.
The mark [22] stands for this setting: pH 8.2, read-out: Minimum Inhibitory Concentration, PRD.
[23] abbreviates: 48 h, pH 8.2, read-out: Minimum Inhibitory Concentration, Sa.
Setting [24] is: pH 6.8, nutrient agar, 30° C., 48 hours, read-out: Minimum Inhibitory Concentration, Sa.
[25] abbreviates: 48 h, pH 8.2, read-out: Minimum Inhibitory Concentration, Kp.
Where [26] appears, read: pH 6.8, nutrient agar, 30° C., 48 hours, read-out: Minimum Inhibitory Concentration, Kp.
Setting [27] is: pH 6.8, read-out: Minimum Inhibitory Concentration, Sc.
Where [28] appears, read: pH 8.2, read-out: Minimum Inhibitory Concentration, Sc.
Setting [29] is: pH 6.8, read-out: Minimum Inhibitory Concentration, Ea.
Setting [30] is: pH 8.2, read-out: Minimum Inhibitory Concentration, Ea.
The mark [31] stands for this setting: pH 6.8, read-out: Minimum Inhibitory Concentration, Bs.
[32] abbreviates: pH 8.2, read-out: Minimum Inhibitory Concentration, Bs.

`COc1ccc2nc3c(nc2c1)SC(=C(C#N)C#N)S3` [U, 6-Methoxy-1,3-dithiolo-(4,5-b)-quinoxaline-2-ylidene-propanedinitrile]: the MIC in [1] is greater than 500 µg/mL; in [2] (pH 6.8, 30° C.), greater than 500 µg/mL; in experiment [2] (pH 8.2, 30° C.), greater than 500 µg/mL; in experiment [3] (setting [17]) it was greater than 500 µg/mL; in experiment [3] (setting [18]), greater than 500 µg/mL; in experiment [4] (setting [19]), greater than 500 µg/mL. Also, the MIC in [4] (setting [20]), in experiment [5], in experiment [6] (setting [21]), in experiment [6] (setting [22]), in [7] (setting [23]) and in [7] (setting [24]) was greater than 500 µg/mL each time. Moreover, the MIC in experiment [8], in [9], in [10] (setting [25]), in experiment [10] (setting [26]), in experiment [11] (setting [27]) and in [11] (setting [28]) was greater than 500 µg/mL throughout. The MIC in [12] (setting [29]), in experiment [12] (setting [30]), in experiment [13], in experiment [14], in experiment [15] (setting [31]) and in experiment [15] (setting [32]) was greater than 500 µg/mL each time.

Regarding `N#CC(C#N)=C1Sc2nc3ccc(C#N)cc3nc2S1` [S, 6-cyano-1,3-dithiolo-(4,5-b)-quinoxaline-2-ylidene-propanedinitrile], the MIC is 100 µg/mL (≈ 341 µM) in experiment [16]; greater than 500 µg/mL in experiment [2] (pH 6.8, 30° C.); greater than 500 µg/mL in experiment [2] (pH 8.2, 30° C.); greater than 500 µg/mL in [3] (setting [17]); greater than 500 µg/mL in [3] (setting [18]); greater than 500 µg/mL in experiment [4] (setting [19]). The MIC in [4] (setting [20]) was greater than 500 µg/mL; in [5], 500 µg/mL (≈ 1700 µM); in experiment [6] (setting [21]), greater than 500 µg/mL; in [6] (setting [22]) it was greater than 500 µg/mL; in [7] (setting [23]), greater than 500 µg/mL; in experiment [7] (setting [24]), greater than 500 µg/mL. Also, the MIC in [8] was greater than 500 µg/mL; in experiment [9], 500 µg/mL (≈ 1700 µM); in experiment [10] (setting [25]), greater than 500 µg/mL; in [10] (setting [26]), greater than 500 µg/mL; in experiment [11] (setting [27]), greater than 500 µg/mL; in experiment [11] (setting [28]), greater than 500 µg/mL. Also, the MIC is greater than 500 µg/mL in experiment [12] (setting [29]); greater than 500 µg/mL in experiment [12] (setting [30]); 500 µg/mL (≈ 1700 µM) in [13]; 100 µg/mL (≈ 341 µM) in experiment [14]; greater than 500 µg/mL in experiment [15] (setting [31]); greater than 500 µg/mL in experiment [15] (setting [32]).
